Measured values: US20230286925A1, “PHENYL TRIAZOLE MLL1-WDR5 PROTEIN-PROTEIN INTERACTION INHIBITOR” (HUYABIO International, LLC, priority 2022, published 2023)
Read-outs that look alike come from different tables or passages of the source.

Legend:
[1] = target: MLL1-WDR5 protein-protein interaction (Homo sapiens (Human), UniProt P61964); experiment: WDR5 TR-FRET assay of inhibition against MLL1-WDR5 protein-protein interaction; format: binding
Method: WDR5 TR-FRET Assay Procedure: Stock compounds were transferred to the assay plate by Echo Liquid Handler. Reactions were performed in the assay buffer (1×PBS, 300 mM NaCl, 0.5 mM TCEP, 0.1% CHAPS) containing 5 nM WDR5 protein, 10 nM peptide (Ac-ARTEVHLRKS-[Ahx-Ahx] [C]-Alexa Fluor 488-NH2) and 0.25 nM Tb-anti His antibody (Tb-Ab) in 384-well white plate (PerkinElmer) with a final volume of 20 μl. Compounds were incubated with WDR5 protein for 30 min at room temperature. Plates were covered, protected from light and incubated for 60 min at room temperature after adding the peptide and Tb-Ab. EnVision Multimode Plate Reader (PerkinElmer) was used for the TR-FRET assay with excitation wavelength at 340 nm and emission wavelength at 495 and 520 nm. The ratio of the 520/495 wavelengths were used to assess the degree of the FRET signal. IC50 was calculated by fitting the inhibition data using XLfit software to sigmoidal dose-response model.
Biphenyl compound DDO-2084 was reported to be a small molecule inhibitor that can inhibit MLL1-WDR5 protein-protein interaction, reduce MLL1 enzyme catalytic activity, and downregulate the expression of Hox and Meis-1 genes (Eur. J. Med. Chem. 2016, 124, 480-489). DDO-2084 is used as a positive control compound.

MV-411 cells = experiment: Anti-proliferative activity against leukemia cells (CellTiterGlo viability, 72 hrs); format: cell-based
Method: Procedure: MV-411 or Molm-13 cells were seeded into 384 well plates at 2000 cells/well density in 50 uL according plate map and were allowed to naturally sediment by waiting about 30 min in Clean Bench. Next, plated cells were centrifuged for 1 min at 1000 rpm and the excess cells were transferred into the flasks for further culture. Cells in the assay plates were incubated (at least 4 hrs) at 37° C., 5% CO2 for next process followed by adding the compounds as the plate map indicated. The tests were performed in duplicates with treatment of compounds at 10 pts 3 fold titration in 384 well plates. Taxol was as positive control while DMSO as negative control. To rule out edge effect, the wells on the edge were not seeded and therefore one 384 well plate holds 13 compounds. Cells viability was measured 72 hrs after incubation with compounds and using CellTiterGlo (promega) viability assay according to manufactory's instruction to check the ATP production in each well.
Experiments on anti-proliferative activity against leukemia cells were conducted with some of the compounds of the invention.

[2] = WDR5 TR-FRET, 5 nM WDR5 protein, 10 nM peptide, read-out: MLL1-WDR5 PPI inhibitory activity
[3] = MV4-11, MV-411 human acute monocytic leukemia cell, Table 6
[4] = MV-411 human acute monocytic leukemia cell, Table 6
[5] = Table 7, read-out: WDR5 TR-FRET Assay (IC50 nM)
[6] = MV4-11, MV-411 human acute monocytic leukemia cell, Table 7

Molecule	IC50 [1, 2]	GI50 (MV-411 cells; [3])	also measured
CCOC(=O)[C@H](C)OC(=O)c1cn(-c2ccc(N3CCN(C)CC3)c(NC(=O)c3cc(N)c(F)c(C)c3Cl)c2)nn1 [HYBI_013]	19.4 nM	2.46 µM	–
CCN(CC)C(=O)c1cn(-c2cc(NC(=O)c3cc(N)c(F)c(C)c3Cl)c(N3C[C@@H](C)N(C)[C@@H](C)C3)cc2F)nn1 [HYBI_082]	4.91 nM	–	GI50 (MV-411 cells; [4]): 2.4 µM
C[C@@H]1CN(c2cc(F)c(-c3ccc(OCC4CC4)nc3)cc2Nc2ncnc(Cl)c2N)C[C@H](C)N1C [DDO-2213_022, 6-chloro-N4-(5-(6-(cyclopropylmethoxy)pyridin-3-yl)-4-fluoro-2-((3S,5R)-3,4,5-trimethylpiperazin-1-yl)phenyl)pyrimidine-4,5-diamine]	–	–	IC50 [1, 5]: 41.2 nM; GI50 (MV-411 cells; [6]): 3.68 µM
Cc1c(F)c(N)cc(C(=O)Nc2cc(-n3cc(C(=O)OCC4(C)CCCCC4)nn3)ccc2N2CCN(C)CC2)c1Cl [HYBI_014]	–	2.62 µM	–
Cc1cc(C)cc(C(=O)Nc2cc(-n3cc(C(=O)NCCCN4CCOCC4)nn3)ccc2N2CCN(C)CC2)c1 [HYBI_044]	903 nM	64.8 µM	–
Cc1cc(C(=O)Nc2cc(-n3cc(C(=O)NCCCN4CCOCC4)nn3)ccc2N2CCN(C)CC2)cc(C)c1F [HYBI_037]	109 nM	8.38 µM	–
C[C@H]1CN(c2cc(F)c(-c3cnc(N4CCOCC4)nc3)cc2Nc2ncnc(Cl)c2N)CCN1C [DDO-2213_020, (S)-6-chloro-N4-(2-(3,4-dimethylpiperazin-1-yl)-4-fluoro-5-(2-morpholinopyrimidin-5-yl)phenyl)pyrimidine-4,5-diamine]	–	–	IC50 [1, 5]: 7.44 nM; GI50 (MV-411 cells; [6]): 5.21 µM
C[C@@H]1CN(c2ccc(-c3cc(CNC4CCCCC4)ccc3F)cc2Nc2ncnc(Cl)c2N)C[C@H](C)N1C [DDO-2213_030, 6-chloro-N4-(5′-((cyclohexylamino)methyl)-2′-fluoro-4-((3S,5R)-3,4,5-trimethylpiperazin-1-yl)-[1,1′-biphenyl]-3-yl)pyrimidine-4,5-diamine]	–	–	IC50 [1, 5]: 418 nM; GI50 (MV-411 cells; [6]): 2.43 µM
Cc1c(F)c([N+](=O)[O-])cc(C(=O)Nc2cc(-n3cc(C(=O)NCCCN4CCOCC4)nn3)ccc2N2CCN(C)CC2)c1Cl [HYBI_039]	131 nM	0.108 µM	–
CN1CCN(c2ccc(-n3cc(C(=O)NCCCN4CCOCC4)nn3)cc2NC(=O)c2ccc(F)c(C(F)(F)F)c2)CC1 [HYBI_042]	802 nM	4.75 µM	–
COC(=O)c1cn(-c2cc(NC(=O)c3cc(N)c(F)c(C)c3Cl)c(N3CCN(C)CC3)cc2F)nn1 [DDO-2316]	–	25.4 µM	–
Cc1c(F)ccc(C(=O)Nc2cc(-n3cc(C(=O)NCCCN4CCOCC4)nn3)ccc2N2CCN(C)CC2)c1Cl [HYBI_038]	185 nM	17.5 µM	–
Cc1c(F)c(N)cc(C(=O)Nc2cc(-n3cc(C(=O)NCCCN4CCOCC4)nn3)c(F)cc2N2CCN(C)[C@@H](C)C2)c1Cl [DDO-2312]	–	24.5 µM	–
Cc1c(F)c(N)cc(C(=O)Nc2cc(-n3cc(C(=O)NCCCN4CCOCC4)nn3)c(F)cc2N2CCN(C)C(C)C2)c1Cl (stereo not shown) [HYBI_027]	10.8 nM	20 µM	–
CN1CCN(c2ccc(-n3cc(C(=O)NCCCN4CCOCC4)nn3)cc2NC(=O)c2ccc(F)c([N+](=O)[O-])c2)CC1 [HYBI_040]	828 nM	0.21 µM	–
Cc1c(F)c(N)cc(C(=O)Nc2cc(-n3cc(C(=O)NC4CCOCC4)nn3)c(F)cc2N2C[C@@H](C)N(C)[C@@H](C)C2)c1Cl [HYBI_086]	3.99 nM	19.7 µM	–
Cc1c(F)c(N)cc(C(=O)Nc2cc(-n3cc(C(=O)NCCCN4CCOCC4)nn3)ccc2N2CCN(C)[C@@H](C)C2)c1Cl [HYBI_020]	8.23 nM	8.36 µM	–
Cc1c(F)c(N)cc(C(=O)Nc2cc(-n3cc(C(=O)OC4(C)CCC4)nn3)ccc2N2CCN(C)CC2)c1Cl [HYBI_018]	16.8 nM	5.99 µM	–

Molecule	IC50 [1, 2]	GI50 (MV-411 cells; [3])	also measured
C[C@@H]1CN(c2cc(F)c(-c3ccc(CN4CCOCC4)cc3)cc2Nc2ncnc(Cl)c2N)C[C@H](C)N1C [DDO-2213_018, 6-chloro-N4-(6-fluoro-4′-(morpholinomethyl)-4-((3S,5R)-3,4,5-trimethylpiperazin-1-yl)-[1,1′-biphenyl]-3-yl)pyrimidine-4,5-diamine]	–	–	IC50 [1, 5]: 110 nM; GI50 (MV-411 cells; [6]): 10.8 µM
CC(C)N1CCN(c2ncc(-c3cc(Nc4ncnc(Cl)c4N)c(N4C[C@@H](C)N(C)[C@@H](C)C4)cc3F)cn2)CC1 [DDO-2213_027, 6-chloro-N4-(4-fluoro-5-(2-(4-isopropylpiperazin-1-yl)pyrimidin-5-yl)-2-((3S,5R)-3,4,5-trimethylpiperazin-1-yl)phenyl)pyrimidine-4,5-diamine]	–	–	IC50 [1, 5]: 31.3 nM; GI50 (MV-411 cells; [6]): 6.56 µM
C[C@H]1CN(c2cc(F)c(-c3ccc(NC(=O)C4CCCCC4)cc3)cc2Nc2ncnc(Cl)c2N)CCN1C [DDO-2213_005, (S)—N-(5′-((5-amino-6-chloropyrimidin-4-yl)amino)-4′-(3,4-dimethylpiperazin-1-yl)-2′-fluoro-[1,1′-biphenyl]-4-yl)cyclohexanecarboxamide]	–	–	IC50 [1, 5]: 11.1 nM; GI50 (MV-411 cells; [6]): 3.37 µM
Cc1c(F)c(N)cc(C(=O)Nc2cc(-n3cc(C(=O)NCCCN4CCN(C)CC4)nn3)c(F)cc2N2C[C@@H](C)N(C)[C@@H](C)C2)c1Cl [HYBI_101]	3.65 nM	10.5 µM	–
C[C@H]1CN(c2cc(F)c(-c3ccc(C(=O)N(C)C)cc3)cc2Nc2ncnc(Cl)c2N)CCN1C [DDO-2213_001, (S)-5′-((5-amino-6-chloropyrimidin-4-yl)amino)-4′-(3,4-dimethylpiperazin-1-yl)-2′-fluoro-N,N-dimethyl-[1,1′-biphenyl]-4-carboxamide]	–	–	IC50 [1, 5]: 11.1 nM; GI50 (MV-411 cells; [6]): 11.6 µM
C[C@@H]1CN(c2cc(F)c(-c3cccc(CN4CCOCC4)c3)cc2Nc2ncnc(Cl)c2N)C[C@H](C)N1C [DDO-2213_019, 6-chloro-N4-(6-fluoro-3′-(morpholinomethyl)-4-((3S,5R)-3,4,5-trimethylpiperazin-1-yl)-[1,1′-biphenyl]-3-yl)pyrimidine-4,5-diamine]	–	–	IC50 [1, 5]: 215 nM; GI50 (MV-411 cells; [6]): 6.98 µM
1-(3-(5-amino-2-chloro-4-fluoro-3-methylbenzamido)-4-(4-methylpiperazin-1-yl)phenyl)-N-(2-ethoxyethyl)-1H-1,2,3-triazole-4-carboxamide [HYBI_002]	44.2 nM	–	GI50 (MV-411 cells; [4]): 6.31 µM
C[C@@H]1CN(c2ccc(-c3ccc(NC(=O)CC4CCCCC4)cc3)c(F)c2Nc2ncnc(Cl)c2N)C[C@H](C)N1C [DDO-2213_015, N-(3′-((5-amino-6-chloropyrimidin-4-yl)amino)-2′-fluoro-4′-((3S,5R)-3,4,5-trimethylpiperazin-1-yl)-[1,1′-biphenyl]-4-yl)-2-cyclohexylacetamide]	–	–	IC50 [1, 5]: 85.5 nM; GI50 (MV-411 cells; [6]): 4.14 µM
Cc1cc(C(=O)Nc2cc(-n3cc(C(=O)NCCCN4CCOCC4)nn3)ccc2N2CCN(C)CC2)ccc1F [HYBI_041]	–	13.2 µM	–
C[C@H]1CN(c2cc(F)c(-c3ccnc(OCC4CC4)c3)cc2Nc2ncnc(Cl)c2N)CCN1C [DDO-2213_008, (S)-6-chloro-N4-(5-(2-(cyclopropylmethoxy)pyridin-4-yl)-2-(3,4-dimethylpiperazin-1-yl)-4-fluorophenyl)pyrimidine-4,5-diamine]	–	–	IC50 [1, 5]: 8.63 nM; GI50 (MV-411 cells; [6]): 4.76 µM
Cc1c(F)c(N)cc(C(=O)Nc2cc(-n3cc(C(=O)N4CCOCC4)nn3)c(F)cc2N2C[C@@H](C)N(C)[C@@H](C)C2)c1Cl [HYBI_083]	3.08 nM	40.2 µM	–
Cc1c(F)c(N)cc(C(=O)Nc2cc(-n3cc(C(=O)NCCCN4CCOCC4)nn3)ccc2N2CCCN(C)CC2)c1Cl [HYBI_022]	62.3 nM	17.2 µM	–
Cc1c(F)c(N)cc(C(=O)Nc2cc(-n3cc(C(=O)NCCCN4CCOCC4)nn3)ccc2N2CCN(C)[C@H](C)C2)c1Cl [DDO-2308]	–	9.29 µM	–
COc1cc(N2CCN(C)CC2)c(NC(=O)c2cc(N)c(F)c(C)c2Cl)cc1-n1cc(C(=O)NCCCN2CCOCC2)nn1 [DDO-2315]	–	24.5 µM	–
Cc1c(F)c(N)cc(C(=O)Nc2cc(-n3cc(C(=O)NCCCN4CCOCC4)nn3)c(F)cc2N2CCN(C)[C@H](C)C2)c1Cl [DDO-2313]	–	40.9 µM	–
CN1CCN(c2ccc(-n3cc(C(=O)NCCCN4CCOCC4)nn3)cc2NC(=O)c2ccc(O)cc2C(F)(F)F)CC1 [HYBI_043]	–	76 µM	–
Cc1c(F)c(N)cc(C(=O)Nc2cc(-n3cc(C(=O)NCCCN4CCOCC4)nn3)ccc2N2CCN(C)C(C)C2)c1Cl (stereo not shown) [DDO-2306]	–	7.11 µM	–
